# Experimental data: patent US8796272B2, “Glycine transporter-inhibiting substances” (Taisho Pharmaceutical Co., Ltd, priority 2011, dated 2014)
# Biological target: T1, human type 1 glycine transporter (GlyT1) (Homo sapiens, UniProt P48067)
# T1 construct: T98G cells (glioma cells) expressing human type 1 glycine transporter (GlyT1) were used; endogenous in cells; host or cells: T98G cells (human glioma)
# T1 sequence (P48067 1-706): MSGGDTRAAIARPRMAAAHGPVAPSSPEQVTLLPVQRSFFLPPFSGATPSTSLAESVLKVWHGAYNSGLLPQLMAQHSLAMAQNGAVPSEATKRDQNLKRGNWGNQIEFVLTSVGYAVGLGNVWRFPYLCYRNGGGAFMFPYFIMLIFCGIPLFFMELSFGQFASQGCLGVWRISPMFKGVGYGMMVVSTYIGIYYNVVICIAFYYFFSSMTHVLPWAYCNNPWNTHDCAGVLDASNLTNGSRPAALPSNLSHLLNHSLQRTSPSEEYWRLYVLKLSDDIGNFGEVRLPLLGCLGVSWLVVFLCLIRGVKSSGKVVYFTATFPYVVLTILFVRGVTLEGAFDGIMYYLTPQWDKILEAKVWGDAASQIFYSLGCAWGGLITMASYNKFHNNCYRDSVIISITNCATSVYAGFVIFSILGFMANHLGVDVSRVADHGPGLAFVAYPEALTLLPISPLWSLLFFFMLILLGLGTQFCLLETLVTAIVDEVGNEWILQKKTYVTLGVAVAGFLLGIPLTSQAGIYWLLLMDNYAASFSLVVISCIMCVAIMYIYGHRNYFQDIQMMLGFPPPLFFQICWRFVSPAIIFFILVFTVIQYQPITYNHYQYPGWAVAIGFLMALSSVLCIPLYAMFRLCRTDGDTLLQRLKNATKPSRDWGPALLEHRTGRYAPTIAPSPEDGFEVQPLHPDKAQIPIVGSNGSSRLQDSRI
# Assay: Glycine uptake inhibition experiment ([3H] glycine uptake)
# Format: cell-based
# Settings: T98G cells (glioma cells) expressing human GlyT1; [3H] glycine 250 nM; 10-min pretreatment, 15 minutes at room temperature; read-out: glycine uptake inhibitory activity (IC50 value)
# Protocol: A glycine uptake experiment was conducted in accordance with the method published in Neuron, 8, 927-935, 1992. In the experiment, T98G cells (glioma cells) expressing human type 1 glycine transporter (GlyT1) were used. The T98G cells were seeded in a 96-well plate at 2.0×10^4 cells/well and cultured overnight in a CO2 incubator. The test substance was dissolved in a 100% DMSO solution and then dissolved in a 10 mM HEPES buffer solution (pH 7.4) containing 150 mM sodium chloride, 1 mM calcium chloride, 5 mM potassium chloride, 1 mM magnesium chloride, 10 mM glucose and 0.2% bovine serum albumin. After removing the cell culture medium, the test substance was subjected to a 10-min pretreatment. Subsequently, the test substance and [^3H] glycine (final concentration: 250 nM) were added to the cells and reaction was performed at room temperature for 15 minutes. After the end of the reaction, the extracellular fluid was aspirated with a manifold to remove excess labeled glycine present outside the cells, and then the cells were lysed with a 0.5 M aqueous sodium hydroxide solution. The glycine content in the cells was determined by measuring the radioactivity in the cell lysate with a liquid scintillation counter. Glycine uptake in the presence of 10 μM ALX^5407 was defined as non-specific uptake, and the value calculated by subtracting the amount of the non-specific uptake from the total uptake in the absence of 10 μM ALX5407 was defined as specific uptake. In addition, glycine uptake inhibitory activity (IC50 value) was calculated from an inhibition curve at the concentrations of each test substance ranging from 10^−9 to 10^−5 M.
# It should be noted that ALX^5407 is an HCl salt of N-[(3R)-3-([1,1′-biphenyl]-4-yloxy)-3-(4-fluorophenyl)propyl]-N-methylglycine.
row,Compound,IC50
1,CC(C)[C@H]1CN(c2ccc(C(F)(F)F)nc2)C(=O)N1CC(=O)Nc1nnc(C(F)(F)F)s1 [Compound 54],800 nM
2,CCc1cnc(N2C[C@H](C(C)C)N(CC(=O)Nc3ccc(C(F)(F)F)nc3)C2=O)nc1 [Compound 104],240 nM
3,CC(C)(C)[C@H]1CN(c2ccc(C(F)(F)F)nc2)C(=O)N1CC(=O)Nc1cccc(C(F)(F)F)c1 [Compound 13],74 nM
4,COc1cnc(N2C[C@H](C(C)C)N(CC(=O)Nc3cc(C(F)(F)F)ccn3)C2=O)nc1 [Compound 93],54 nM
5,CCc1ccnc(NC(=O)CN2C(=O)N(c3cnc(C(F)(F)F)nc3)C[C@@H]2C(C)C)c1 [Compound 165],150 nM
6,CC(C)[C@H]1CN(c2ccc(C(F)(F)F)nc2)C(=O)N1CC(=O)Nc1cc(C(C)(C)C)no1 [Compound 103],230 nM
7,CC(C)[C@H]1CN(c2ncc(F)cn2)C(=O)N1CC(=O)Nc1cc(Cl)ccn1 [Compound 188],600 nM
8,O=C(CN1C(=O)N(c2ccc(C(F)(F)F)nc2)C[C@@H]1CC1CCCCC1)Nc1cccc(C(F)(F)F)c1 [Compound 8],660 nM
9,O=C(CN1C(=O)N(c2ccc(C(F)(F)F)nc2)C[C@@H]1c1ccccc1)Nc1cccc(C(F)(F)F)c1 [Compound 12],71 nM
10,COC(C)(C)[C@H]1CN(c2ccc(C(F)(F)F)nc2)C(=O)N1CC(=O)Nc1cc(C(F)(F)F)ccn1 [Compound 148],75 nM
11,CC(C)[C@H]1CN(c2ccc(F)cn2)C(=O)N1CC(=O)Nc1cccc(C(F)(F)F)c1 [Compound 11],89 nM

# More lines, in order of falling IC50, values ahead:
row,IC50,Compound
1,53 nM,CC(C)[C@H]1CN(c2ccc(C(F)(F)F)nc2)C(=O)N1CC(=O)Nc1cncc(Cl)c1 [Compound 61]
2,45 nM,CCOc1ccc(N2C[C@H](C(C)C)N(CC(=O)Nc3cc(Cl)ccn3)C2=O)nc1 [Compound 186]
3,43 nM,O=C(CN1C(=O)N(c2ncc(C(F)(F)F)cc2F)C[C@@H]1CC1CC1)Nc1cc(Cl)ccn1 [Compound 152]
4,33 nM,CC(C)[C@H]1CN(c2ncc(Cl)cn2)C(=O)N1CC(=O)Nc1cc(C(F)(F)F)ccn1 [Compound 62]
5,24 nM,CCOc1cnc(N2C[C@H]([C@@H](C)CC)N(CC(=O)Nc3cc(C4CC4)ccn3)C2=O)nc1 [Compound 250]
6,22 nM,CC(C)[C@H]1CN(c2ncc(C3CC3)cn2)C(=O)N1CC(=O)Nc1cc(C(F)(F)F)ccn1 [Compound 193]
7,18 nM,CC[C@H](C)[C@H]1CN(c2ncc(C3CC3)cn2)C(=O)N1CC(=O)Nc1cc(Cl)ccn1 [Compound 249]
8,17 nM,CCOc1cnc(N2C[C@H]([C@@H](F)CC)N(CC(=O)Nc3cc(C(F)(F)F)ccn3)C2=O)nc1 [Compound 220]
9,16 nM,CCOc1cnc(N2C[C@H]([C@@H](C)CC)N(CC(=O)Nc3cc(Cl)ccn3)C2=O)nc1 [Compound 248]
